One block for each molecule: values may come before it.
Tests used:
XO = target: T1, XO (Bos taurus, UniProt P80457); assay: Conversion of DHNB to products by XO / reaction of XO and DHNB; format: biochemical, bovine; conditions: for conversion of inhibitor by XO after 20 h: pre-incubation with XO for 20 h
T1 construct: Xanthine oxidase from bovine milk; purchased Sigma Chemical Co. (St. Louis, Mo.); host or cells: bovine milk
Description: Negative electrospray ionization-mass spectrometry (ESI-MS) and tandem (MSMS) were applied to detect and confirm the reaction products of DHNB with XO. All mass spectrometric experiments were performed on an API 3200-Qtrap triple quadrupole mass spectrometer (Applied Biosystem/MDS SCIEX; Foster City, Calif.) equipped with a TurbolonSpray™ source. The main working parameters for mass spectrum were set as follows: ion-spray voltage, −4.5 kV; ion source temperature, 600° C.; gas 1, 40 psi; gas 2, 40 psi; curtain gas, 20 psi; collision gas, high.
After that, the enzymatic activity of XO was recovered.

HOCl scavenging assay = conditions: 20 μM, compared with vitamin C
Description: HOCl scavenging assay—HOCl was prepared immediately before use by adjusting the pH of a 1% (v/v) solution of NaOCl to pH 6.2 with 0.6 M sulfuric acid. The concentration was further determined spectrophotometrically at 235 nm using the molar extinction coefficient of 100 M^−1 cm^−1. 5-Thio-2-nitrobenzoic acid (TNB) was prepared by reducing 5,5′-dithio-bis(2-nitrobenzoic acid) (DTNB) with sodium borohydride in phosphate buffer. The final concentrations of reagents used in the assay are as follows: 25 μM HOCl, 70 μM TNB, 0 to 200 μM antioxidants, phosphate buffer, 50 mM, pH 6.6. The HOCl scavenging assay was based on the inhibition of TNB oxidation to DTNB induced by HOCl.

DPPH scavenging assay = conditions: 20 μM compound, 100 μM DPPH, compared with vitamin C
Description: DPPH scavenging assay—The abilities of the polyphenols described herein to scavenge the DPPH radical were measured optically by monitoring the decreases of their absorptions at […]. […] DPPH was used at a concentration of 100 μM. Their scavenging activities were compared with that of vitamin C.

xanthine oxidase = xanthine oxidase (Bos taurus, UniProt P80457); conditions: for ability to inhibit XO at a concentration of 20 μM: compared with allopurinol (FIG. 2); for influence of pre-incubation with XO on XO inhibition: pre-incubation with XO 0 to 5 min at 25° C.; for time course of XO inhibition: XO (20 nM) added to xanthine (50 μM) and inhibitor (6.67 μM) to start the reaction; for XO activity after pre-incubation with inhibitor for 20 h: room temperature, DNSA 5 μM or 10 μM;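 for all read-outs here: xanthine oxidase activity read as the initial rate of uric acid production, with water serving as the negative control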
[1] = Peroxynitrite scavenging assay; conditions: 25 μM ONOO−, pH 7.4 (FIG. 7C)
Description: Peroxynitrite scavenging assay—Peroxynitrite (ONOO—) was generated by mixing 5 mL acidic solution (0.6 M HCl) of H2O2 (0.7 M) and 5 mL of 0.6 M KNO2 in an ice bath for 1 second and the reaction was quenched with 5 mL of ice-cold 1.2 M NaOH. Residual H2O2 was removed using granular MnO2 prewashed with 1.2 M NaOH and the reaction mixture was then left overnight at −20° C. Concentrations of ONOO^− were determined before each experiment at 302 nm using a molar extinction coefficient of 1,670 M^−1 cm^−1. The final concentrations of reagents used in the assay are as follows: 25 μM ONOO^−, 10 μM DTPA, 5 μM DHR 123, 0.1 M phosphate buffer, pH 7.4. The ONOO^− scavenging assay was performed by monitoring the oxidation of dihydrorhodamine (DHR 123) by ONOO^− spectrophotometrically at 500 nm. […] Vitamin C was used as a positive control. The concentration dependent effects of these compounds on ONOO^− scavenging were also studied and compared with that of vitamins C and E (FIG. 10).

[2] = test system: allantoxanamide induced hyperuricemic mice; assay: Hypouricemic effect in allantoxanamide induced hyperuricemic mice; format: in vivo; conditions: for serum urate levels: 100 mg/kg oral before allantoxanamide injection
Description: A hyperuricemia mouse model was used. Allantoxanamide, a potent uricase inhibitor, was used to induce hyperuricemia in mice in this study. […] The mice were subsequently intraperitoneally injected with allantoxanamide at 200 mg/kg in 0.5% CMC-Na in a volume of 0.1 ml/10 g mouse body weight just after the tested drug oral administration to increase the serum uric acid level. […] The negative control mice were administered PEG400 only followed by i.p. allantoxanamide. The normal group mice were administered PEG400 only followed by i.p. CMC-Na only. Food and water were withheld overnight prior to the study. Whole blood samples were collected from mice through orbital vein bleeding at the end of the study. The mice were anaesthetized with diethyl ether inside a chamber. The blood was allowed to clot for 1 h at room temperature and then centrifuged at 2350×g for 4 min to obtain the serum. The serum was kept on ice and assayed immediately. Serum uric acid was determined with the phosphotungstate method, as known to those of skill in the art.

mouse = conditions: oral administration once; cited from earlier work
C57BL/6 mice = test system: C57BL/6 mice
Source text: Each mouse was monitored for general health conditions on a daily basis for 28 days, including examination of mortality, body weights, and behavior of the mice.

[3] = Superoxide scavenging assay (xanthine-xanthine oxidase system, NBT reduction); conditions: 20 μM
Description: Superoxide scavenging assay—Superoxide (O2^−•) scavenging activity was assayed in the xanthine-xanthine oxidase system and determined by the inhibition of the reduction of nitro blue tetrazolium (NBT) to form blue formazan which has an absorption at 560 nm. The final concentrations of reagents used in the assay are as follows: 16.8 mU xanthine oxidase, 25 μM xanthine, 50 μM NBT, and 0.1 M phosphate buffer (pH 8.5). […] The abilities of polyphenols to scavenge O2^−• were compared with that of GSH.

T1 sequence (P80457 whole entry): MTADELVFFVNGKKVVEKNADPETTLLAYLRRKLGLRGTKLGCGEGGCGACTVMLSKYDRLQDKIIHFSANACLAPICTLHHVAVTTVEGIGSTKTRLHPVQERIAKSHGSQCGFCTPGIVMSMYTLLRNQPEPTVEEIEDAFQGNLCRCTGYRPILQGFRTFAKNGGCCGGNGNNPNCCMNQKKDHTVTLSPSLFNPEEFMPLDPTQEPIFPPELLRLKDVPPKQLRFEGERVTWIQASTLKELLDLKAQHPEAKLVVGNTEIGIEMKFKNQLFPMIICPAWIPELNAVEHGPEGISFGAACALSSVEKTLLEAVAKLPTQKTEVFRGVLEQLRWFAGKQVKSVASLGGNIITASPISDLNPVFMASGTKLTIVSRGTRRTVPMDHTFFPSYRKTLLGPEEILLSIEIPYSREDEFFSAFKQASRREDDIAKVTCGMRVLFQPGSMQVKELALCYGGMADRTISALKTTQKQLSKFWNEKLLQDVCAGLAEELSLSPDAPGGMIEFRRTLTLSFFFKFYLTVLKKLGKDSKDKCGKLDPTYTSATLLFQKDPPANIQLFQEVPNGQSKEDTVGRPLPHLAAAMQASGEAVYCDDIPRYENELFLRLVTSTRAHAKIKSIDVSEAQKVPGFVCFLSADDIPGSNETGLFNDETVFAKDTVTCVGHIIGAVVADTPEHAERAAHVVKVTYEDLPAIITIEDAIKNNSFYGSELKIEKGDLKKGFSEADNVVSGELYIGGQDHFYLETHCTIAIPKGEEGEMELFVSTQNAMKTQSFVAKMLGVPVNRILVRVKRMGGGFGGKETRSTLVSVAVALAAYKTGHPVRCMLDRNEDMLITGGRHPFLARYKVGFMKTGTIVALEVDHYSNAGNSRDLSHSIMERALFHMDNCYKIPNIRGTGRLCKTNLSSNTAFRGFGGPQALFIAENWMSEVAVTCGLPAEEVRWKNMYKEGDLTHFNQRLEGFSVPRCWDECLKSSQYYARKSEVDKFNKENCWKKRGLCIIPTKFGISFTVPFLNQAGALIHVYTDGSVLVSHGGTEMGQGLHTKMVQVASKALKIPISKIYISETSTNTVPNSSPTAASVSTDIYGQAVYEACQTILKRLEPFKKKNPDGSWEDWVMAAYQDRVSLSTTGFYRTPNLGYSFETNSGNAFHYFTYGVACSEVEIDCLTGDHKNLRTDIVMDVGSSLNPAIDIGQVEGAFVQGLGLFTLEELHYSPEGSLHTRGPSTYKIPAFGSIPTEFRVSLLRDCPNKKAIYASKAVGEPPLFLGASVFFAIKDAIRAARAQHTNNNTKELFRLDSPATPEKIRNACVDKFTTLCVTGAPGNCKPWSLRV
Chain of xanthine oxidase (P80457 whole entry): as above

inhibitory effect on XO of the product of DHNB conversion (XO; room temperature): no inhibitory effect on XO
SMILES: O=C(O)c1cc(O)c(O)c([N+](=O)[O-])c1 [3,4-dihydroxy-5-nitrobenzoic acid]

IC50 (xanthine oxidase): 96 µM | ability to inhibit XO at a concentration of 20 μM (xanthine oxidase): had inhibitory effects on XO
SMILES: O=Cc1cc(O)c(O)cc1[N+](=O)[O-] [DH6NB, 3,4-Dihydroxy-6-nitrobenzaldehyde]
HOCl scavenging effect (HOCl scavenging assay): weak scavenging effect on HOCl | DPPH scavenging effect (DPPH scavenging assay): as strong of a DPPH scavenging effect as vitamin C | influence of pre-incubation with XO on XO inhibition (xanthine oxidase; then 50 μM xanthine): pre-incubation also affected the XO inhibition | scavenging effect on ONOO− [1]: strong scavenging effect on ONOO^−

ability to inhibit XO at a concentration of 20 μM (xanthine oxidase): had inhibitory effects on XO
SMILES: O=Cc1ccc(O)c(O)c1 [DHB-CHO, 3,4-dihydroxybenzaldehyde]
HOCl scavenging effect (HOCl scavenging assay): weak scavenging effect on HOCl | DPPH scavenging effect (DPPH scavenging assay): as strong of a DPPH scavenging effect as vitamin C | concentration and pre-incubation time dependence of XO inhibition (xanthine oxidase): not concentration dependent but instead was pre-incubation time dependent | influence of pre-incubation with XO on XO inhibition (xanthine oxidase; then 50 μM xanthine): pre-incubation also affected the XO inhibition | scavenging effect on ONOO− [1]: strong scavenging effect on ONOO^−

SMILES: O=C(O)c1ccc(O)c(O)c1 [DHB-COOH, 3,4-dihydroxybenzoic acid, reference compound]
ability to inhibit XO at a concentration of 20 μM (xanthine oxidase): no effect on XO | influence of pre-incubation with XO on XO inhibition (xanthine oxidase; then 50 μM xanthine): did not show any inhibitory effect

SMILES: O=Cc1cc(O)c(O)c([N+](=O)[O-])c1 [DHNB, 3,4-Dihydroxy-5-nitrobenzaldehyde]
HOCl scavenging effect (HOCl scavenging assay): moderate scavenging effect | serum urate levels ([2]; in 2 hours): significantly lowered | serum urate levels ([2]; in 4 hours): just slightly higher than the normal level | DPPH scavenging effect (DPPH scavenging assay): as strong of a DPPH scavenging effect as vitamin C | duration of inhibition of XO activity (XO; 30 μM DHNB with 15 mU/ml (30 nM) XO, phosphate buffer pH 7.4): up to 20 h | decay rate of DHNB with XO (XO; 30 μM DHNB, 30 nM XO, phosphate buffer, pH dependent (higher pH faster), absorption at 327 nm): ~10^−10 mol/L/s | conversion of inhibitor by XO after 20 h (XO): converted to DHNB-COOH completely | stability without XO (XO; without XO): very stable | lowest published lethal dose (mouse): 312 mg/kg | IC50 (xanthine oxidase): 3 µM | pH dependence of XO inhibition (xanthine oxidase): neutral or slightly acidic solutions benefit the inhibition | ability to inhibit XO at a concentration of 20 μM (xanthine oxidase): had inhibitory effects on XO | time course of XO inhibition (xanthine oxidase): time-dependent inhibition | Dixon plot, steady-state kinetic study of XO inhibition (xanthine oxidase; concentration of DHNB fixed, increasing xanthine, 1 min pre-incubation): initial rates did not change with increasing xanthine concentrations | influence of pre-incubation with XO on XO inhibition (xanthine oxidase; then 50 μM xanthine): significantly increased the inhibition | XO activity after pre-incubation with inhibitor for 20 h (xanthine oxidase): XO activity was recovered | reversibility of XO inhibition (xanthine oxidase; tested condition): irreversible XO inhibitor | scavenging effect on ONOO− [1]: strong scavenging effect on ONOO^− | hair loss of pups of treated mice (C57BL/6 mice; mouse, in vivo): not observed | histology analysis for the liver, kidney, and heart versus control mice (C57BL/6 mice; mouse, in vivo): did not show any difference

ability to inhibit XO at a concentration of 20 μM (xanthine oxidase): no effect on XO | influence of pre-incubation with XO on XO inhibition (xanthine oxidase; then 50 μM xanthine): did not show any inhibitory effect
SMILES: O=[N+]([O-])c1cc(CO)cc(O)c1O [DHNB-CH2OH, reference compound]

ability to inhibit XO at a concentration of 20 μM (xanthine oxidase): no effect on XO | influence of pre-incubation with XO on XO inhibition (xanthine oxidase; then 50 μM xanthine): did not show any inhibitory effect
SMILES: COc1ccc(CO)cc1OC [DMB-CH2OH, 3,4-dimethoxybenzyl alcohol, reference compound]

SMILES: O=Cc1cc([N+](=O)[O-])cc([N+](=O)[O-])c1O [DNSA, 3,5-dinitrosalicylaldehyde]
conversion of inhibitor by XO after 20 h (XO): not converted | influence of pre-incubation of DNSA with XO on XO activity (xanthine oxidase; 20 nM XO and 20 μM DNSA pre-incubated 0-10 min, then 50 μM xanthine, steady-state rate): strongly inhibited XO activity | XO activity after pre-incubation with inhibitor for 20 h (xanthine oxidase): no XO activity at all

SMILES: O.O=Cc1cc(O)c(O)c(O)c1 [THB-CHO, 3,4,5-trihydroxybenzaldehyde hydrate]
HOCl scavenging effect (HOCl scavenging assay): stronger HOCl scavenging effect than that of vitamin C | scavenging effect on superoxide [3]: strong scavenging effects on superoxide | DPPH scavenging effect (DPPH scavenging assay): as strong of a DPPH scavenging effect as vitamin C | IC50 value, inhibition of XO activity (xanthine oxidase; 20 nM XO, 50 μM xanthine, phosphate buffer pH 7.4, 25° C., initial rate of uric acid formation): too high to determine | ability to inhibit XO at a concentration of 20 μM (xanthine oxidase): had inhibitory effects on XO | influence of pre-incubation with XO on XO inhibition (xanthine oxidase; then 50 μM xanthine): pre-incubation also affected the XO inhibition | scavenging effect on ONOO− [1]: strong scavenging effect on ONOO^−

ability to inhibit XO at a concentration of 20 μM (xanthine oxidase): no inhibition on XO activity | influence of pre-incubation with XO on XO inhibition (xanthine oxidase; then 50 μM xanthine): did not show any inhibitory effect
SMILES: COc1cc(C=O)ccc1O [Vanillin, reference compound]

SMILES: NC(=O)c1nc(=O)[nH]c(=O)[nH]1 [allantoxanamide]
serum urate level ([2]; 1 h after 200 mg/kg allantoxanamide i.p., normal mice 2 mg/dl): 5.4 mg/dL | serum urate level ([2]; 2 h after 200 mg/kg allantoxanamide i.p.): 9.5 mg/dL | serum urate level ([2]; 3 h after 200 mg/kg allantoxanamide i.p.): 13.3 mg/dL | serum urate level ([2]; 4 h after 200 mg/kg allantoxanamide i.p.): 16.4 mg/dL

SMILES: Oc1ncnc2[nH]ncc12 [allopurinol]
serum urate level ([2]; same condition as DHNB (100 mg/kg oral before allantoxanamide)): significantly lowered the serum urate level close to the normal level | DPPH scavenging effect (DPPH scavenging assay): no scavenging effect on DPPH | time course of XO inhibition (xanthine oxidase): time-dependent inhibition | pups of surviving mice that died in two days (C57BL/6 mice; 500 mg/kg, total 19 pups): eight | mice died within 3 days (C57BL/6 mice; C57BL/6, mouse, in vivo): 5 | hair loss of pups of treated mice (C57BL/6 mice; mouse, in vivo): lost most of the back hair

SMILES: O=C(O)/C=C/c1ccc(O)c(O)c1 [caffeic acid, reference compound]
scavenging effect on ONOO− [1]: strong scavenging effect on ONOO^−

ability to inhibit XO at a concentration of 20 μM (xanthine oxidase): no effect on XO | influence of pre-incubation with XO on XO inhibition (xanthine oxidase; then 50 μM xanthine): did not show any inhibitory effect
SMILES: O=C(O)c1cc(O)c(O)c(O)c1 [gallic acid, reference compound]
scavenging effect on ONOO− [1]: strong scavenging effect on ONOO^−
